In ChEMBL document CHEMBL1201861, “Genomics of Drug Sensitity in Cancer screening data, Wellcome Trust Sanger Institute”:

Legend:
COLO-679 = assay: cells; format: functional, cell-based, Homo sapiens; details: Homo sapiens, COLO-679
Description: SANGER: Inhibition of human COLO-679 cell growth in a cell viability assay.

NCI-H650 = assay: cells; format: functional, cell-based, Homo sapiens; details: Homo sapiens, NCI-H650;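 note: growth inhibition of NCI-H650 cells, read out by a viability assay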
Description: SANGER: Inhibition of human NCI-H650 cell growth in a cell viability assay.

NCCIT = assay: SANGER: Inhibition of human NCCIT cell growth in a cell viability assay.; format: functional, cell-based; details: Homo sapiens, NCCIT
SW1573 = assay: cells; format: functional, cell-based, Homo sapiens; details: Homo sapiens, SW1573;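 note: growth inhibition of SW1573 cells, read out with a cell viability assay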
Description: SANGER: Inhibition of human SW1573 cell growth in a cell viability assay.

SK-MM-2 = assay: cells; format: functional, cell-based, Homo sapiens; details: Homo sapiens, SK-MM-2;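 note: growth inhibition of human SK-MM-2 cells, read out with a cell viability assay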
Description: SANGER: Inhibition of human SK-MM-2 cell growth in a cell viability assay.

NCI-H1963 = assay: cells; format: functional, cell-based, Homo sapiens; details: Homo sapiens, NCI-H1963;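 note: cell growth inhibition of the human line, determined with a cell viability assay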
Description: SANGER: Inhibition of human NCI-H1963 cell growth in a cell viability assay.

NCI-H2228 = assay: cells; format: functional, cell-based, Homo sapiens; details: Homo sapiens, NCI-H2228;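 note: growth inhibition of human NCI-H2228 cells, read out by a cell viability assay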
Description: SANGER: Inhibition of human NCI-H2228 cell growth in a cell viability assay.

MDA-MB-415 = assay: cells; format: functional, cell-based, Homo sapiens; details: Homo sapiens, MDA-MB-415
COLO-741 = assay: cells; format: functional, cell-based, Homo sapiens; details: Homo sapiens, COLO-741
Description: SANGER: Inhibition of human COLO-741 cell growth in a cell viability assay.

SW1783 = assay: cells; format: functional, cell-based, Homo sapiens; details: Homo sapiens, SW1783
Description: SANGER: Inhibition of human SW1783 cell growth in a cell viability assay.

NCI-H524 = assay: cells; format: functional, cell-based, Homo sapiens; details: Homo sapiens, NCI-H524;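 note: growth inhibition of human NCI-H524 cells, read out through a cell viability assay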
Description: SANGER: Inhibition of human NCI-H524 cell growth in a cell viability assay.

UMC-11 = assay: cells; format: functional, cell-based, Homo sapiens; details: Homo sapiens, UMC-11;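 note: growth inhibition of UMC-11 cells, read out with a cell viability assay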
Description: SANGER: Inhibition of human UMC-11 cell growth in a cell viability assay.

786-0 = assay: cells; format: functional, cell-based, Homo sapiens; details: Homo sapiens
Description: SANGER: Inhibition of human 786-0 cell growth in a cell viability assay.

Ca-Ski = assay: cells; format: functional, cell-based, Homo sapiens; details: Homo sapiens, Ca-Ski;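 note: cell viability assay measuring inhibition of Ca-Ski cell growth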
Description: SANGER: Inhibition of human Ca-Ski cell growth in a cell viability assay.

T84 = assay: cells; format: functional, cell-based, Homo sapiens; details: Homo sapiens, T84;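 note: growth inhibition measured with a cell viability readout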
Description: SANGER: Inhibition of human T84 cell growth in a cell viability assay.

647-V = assay: cells; format: functional, cell-based, Homo sapiens; details: Homo sapiens, 647-V;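 note: growth inhibition of 647-V cells, read out with a cell viability assay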
Description: SANGER: Inhibition of human 647-V cell growth in a cell viability assay.

KYSE-140 = assay: cells; format: functional, cell-based, Homo sapiens; details: Homo sapiens, KYSE-140;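 note: cell viability assay measuring growth inhibition in human KYSE-140 cells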
Description: SANGER: Inhibition of human KYSE-140 cell growth in a cell viability assay.

NCI-H1882 = assay: cells; format: functional, cell-based, Homo sapiens; details: Homo sapiens, NCI-H1882;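 note: growth inhibition of the cell line, determined with a viability assay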
Description: SANGER: Inhibition of human NCI-H1882 cell growth in a cell viability assay.

8305C = assay: cells; format: functional, cell-based, Homo sapiens; details: Homo sapiens, 8305C
Description: SANGER: Inhibition of human 8305C cell growth in a cell viability assay.

G-361 = assay: cells; format: functional, cell-based, Homo sapiens; details: Homo sapiens, G-361
HSC-2 = assay: cells; format: functional, cell-based, Homo sapiens; details: Homo sapiens, HSC-2;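 note: growth inhibition of human HSC-2 cells, read out by a cell viability assay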
Description: SANGER: Inhibition of human HSC-2 cell growth in a cell viability assay.

HPAF-II = assay: cells; format: functional, cell-based, Homo sapiens; details: Homo sapiens, HPAF-II;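 note: growth inhibition of HPAF-II cells, read out with a cell viability assay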
Description: SANGER: Inhibition of human HPAF-II cell growth in a cell viability assay.

GAMG = assay: cells; format: functional, cell-based, Homo sapiens; details: Homo sapiens, GAMG;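 note: cell growth inhibition measured by a viability assay in the GAMG human cell line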
Description: SANGER: Inhibition of human GAMG cell growth in a cell viability assay.

NCI-H1694 = assay: cells; format: functional, cell-based, Homo sapiens; details: Homo sapiens, NCI-H1694;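 note: cell viability assay measuring inhibition of growth in human NCI-H1694 cells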
Description: SANGER: Inhibition of human NCI-H1694 cell growth in a cell viability assay.

SW626 = assay: cells; format: functional, cell-based, Homo sapiens; details: Homo sapiens, SW626;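 note: growth inhibition of SW626 cells, measured with a cell viability assay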
Description: SANGER: Inhibition of human SW626 cell growth in a cell viability assay.

Detroit 562 = assay: cells; format: functional, cell-based, Homo sapiens; details: Homo sapiens, Detroit 562;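 note: growth inhibition of human Detroit 562 cells, read out by a cell viability assay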
Description: SANGER: Inhibition of human Detroit562 cell growth in a cell viability assay.

SK-MES-1 = assay: cells; format: functional, cell-based, Homo sapiens; details: Homo sapiens, SK-MES-1;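 note: growth inhibition of human SK-MES-1 cells, read out with a cell viability assay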
Description: SANGER: Inhibition of human SK-MES-1 cell growth in a cell viability assay.

VMRC-RCZ = assay: cells; format: functional, cell-based, Homo sapiens; details: Homo sapiens, VMRC-RCZ
Description: SANGER: Inhibition of human VMRC-RCZ cell growth in a cell viability assay.

MFE-280 = assay: cells; format: functional, cell-based, Homo sapiens; details: Homo sapiens, MFE-280;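 note: growth inhibition of MFE-280 cells, determined with a cell viability readout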
Description: SANGER: Inhibition of human MFE-280 cell growth in a cell viability assay.

MeWo = assay: cells; format: functional, cell-based, Homo sapiens; details: Homo sapiens, MeWo;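 note: growth inhibition of MeWo cells, determined by a cell viability readout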
Description: SANGER: Inhibition of human Mewo cell growth in a cell viability assay.

NCI-H520 = assay: cells; format: functional, cell-based, Homo sapiens; details: Homo sapiens, NCI-H520;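 note: growth inhibition of NCI-H520 cells, measured by a cell viability assay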
Description: SANGER: Inhibition of human NCI-H520 cell growth in a cell viability assay.

DoTc2-4510 = assay: cells; format: functional, cell-based, Homo sapiens; details: Homo sapiens, DoTc2-4510
HCC70 = assay: cells; format: functional, cell-based, Homo sapiens; details: Homo sapiens, HCC70;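 note: cell viability assay measuring how strongly the compound suppresses proliferation of HCC70 cells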
Description: SANGER: Inhibition of human HCC70 cell growth in a cell viability assay.

NCI-H2170 = assay: cells; format: functional, cell-based, Homo sapiens; details: Homo sapiens, NCI-H2170;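 note: cell viability assay measuring growth inhibition of human NCI-H2170 cancer cells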
Description: SANGER: Inhibition of human NCI-H2170 cell growth in a cell viability assay.

LN-405 = assay: cells; format: functional, cell-based, Homo sapiens; details: Homo sapiens, LN-405
Description: SANGER: Inhibition of human LN-405 cell growth in a cell viability assay.

OPM-2 = assay: cells; format: functional, cell-based, Homo sapiens; details: Homo sapiens, OPM-2;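 note: growth of OPM-2 cells measured with a viability assay, IC50 for suppression of proliferation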
Description: SANGER: Inhibition of human OPM-2 cell growth in a cell viability assay.

MIA PaCa-2 = assay: cells; format: functional, cell-based, Homo sapiens; details: Homo sapiens, MIA PaCa-2;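 note: growth inhibition of MIA PaCa-2 cells, read out with a cell viability assay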
Description: SANGER: Inhibition of human MIA-PaCa-2 cell growth in a cell viability assay.

WM-115 = assay: cells; format: functional, cell-based, Homo sapiens; details: Homo sapiens, WM-115
Description: SANGER: Inhibition of human WM-115 cell growth in a cell viability assay.

HCT-15 = assay: cells; format: functional, cell-based, Homo sapiens; details: Homo sapiens, HCT-15;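 note: cell viability readout, IC50 reflecting suppression of HCT-15 cell growth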
Description: SANGER: Inhibition of human HCT-15 cell growth in a cell viability assay.

L-540 = assay: cells; format: functional, cell-based, Homo sapiens; details: Homo sapiens, L-540;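 note: growth inhibition of the human L-540 cell line, read out with a viability assay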
Description: SANGER: Inhibition of human L-540 cell growth in a cell viability assay.

NCI-H596 = assay: cells; format: functional, cell-based, Homo sapiens; details: Homo sapiens, NCI-H596;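 note: growth inhibition of NCI-H596 cells, read out with a cell viability assay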
Description: SANGER: Inhibition of human NCI-H596 cell growth in a cell viability assay.

SK-MEL-28 = assay: cells; format: functional, cell-based, Homo sapiens; details: Homo sapiens, SK-MEL-28;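 note: growth inhibition of human SK-MEL-28 cells, read out with a cell viability assay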
Description: SANGER: Inhibition of human SK-MEL-28 cell growth in a cell viability assay.

SNU-C1 = assay: cells; format: functional, cell-based, Homo sapiens; details: Homo sapiens, SNU-C1;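 note: growth inhibition of SNU-C1 human cells, read out by a cell viability assay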
Description: SANGER: Inhibition of human SNU-C1 cell growth in a cell viability assay.

CHL-1 = assay: cells; format: functional, cell-based, Homo sapiens; details: Homo sapiens, CHL-1;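 note: cell growth inhibition, read out with a cell viability assay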
Description: SANGER: Inhibition of human CHL-1 cell growth in a cell viability assay.

NCI-H716 = assay: cells; format: functional, cell-based, Homo sapiens; details: Homo sapiens, NCI-H716;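 note: growth inhibition of human NCI-H716 cells, measured by a cell viability assay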
Description: SANGER: Inhibition of human NCI-H716 cell growth in a cell viability assay.

TYK-nu = assay: cells; format: functional, cell-based, Homo sapiens; details: Homo sapiens, TYK-nu;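 note: growth inhibition of human TYK-nu cells, read out by a cell viability assay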
Description: SANGER: Inhibition of human TYK-nu cell growth in a cell viability assay.

CAPAN-1 = assay: cells; format: functional, cell-based, Homo sapiens; details: Homo sapiens, CAPAN-1;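 note: growth suppression of CAPAN-1 cells, read out by a cell viability assay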
Description: SANGER: Inhibition of human CAPAN-1 cell growth in a cell viability assay.

Cc1cc([N+](=O)[O-])ccc1NS(=O)(=O)c1cc(Cl)ccc1Cl
IC50 (COLO-679): 2400 nM | IC50 (NCI-H650): 2780 nM | IC50 (NCCIT): 13.4 µM | IC50 (SW1573): 9.54 µM | IC50 (SK-MM-2): > 32 µM | IC50 (NCI-H1963): 8.68 µM | IC50 (NCI-H2228): 17 µM | IC50 (MDA-MB-415): 4.7 µM | IC50 (COLO-741): 4.49 µM | IC50 (SW1783): 7.15 µM | IC50 (NCI-H524): 12.5 µM | IC50 (UMC-11): 1090 nM | IC50 (786-0): 3.92 µM | IC50 (Ca-Ski): 12.1 µM | IC50 (T84): 4.69 µM | IC50 (647-V): 3.09 µM | IC50 (KYSE-140): 4.58 µM | IC50 (NCI-H1882): > 32 µM | IC50 (8305C): 3.99 µM | IC50 (G-361): 1770 nM | IC50 (HSC-2): 4.56 µM | IC50 (HPAF-II): 10.7 µM | IC50 (GAMG): 5.58 µM | IC50 (NCI-H1694): 22.8 µM | IC50 (SW626): 3.12 µM | IC50 (Detroit 562): 5.32 µM | IC50 (SK-MES-1): 2070 nM | IC50 (VMRC-RCZ): 6.97 µM | IC50 (MFE-280): 2770 nM | IC50 (MeWo): 28.6 µM | IC50 (NCI-H520): 6.2 µM | IC50 (DoTc2-4510): 1520 nM | IC50 (HCC70): 6.62 µM | IC50 (NCI-H2170): 1440 nM | IC50 (LN-405): 11.9 µM | IC50 (OPM-2): > 32 µM | IC50 (MIA PaCa-2): 601 nM | IC50 (WM-115): > 32 µM | IC50 (HCT-15): 6.87 µM | IC50 (L-540): 9.46 µM | IC50 (NCI-H596): 7.95 µM | IC50 (SK-MEL-28): 355 nM | IC50 (SNU-C1): > 32 µM | IC50 (CHL-1): 2180 nM | IC50 (NCI-H716): > 32 µM | IC50 (TYK-nu): 2010 nM | IC50 (CAPAN-1): 2400 nM

Oc1ccc2ccccc2c1SSc1c(O)ccc2ccccc12
IC50 (COLO-679): 28700 nM | IC50 (NCI-H650): > 32000 nM | IC50 (NCCIT): 29.8 µM | IC50 (SW1573): > 32 µM | IC50 (SK-MM-2): > 32 µM | IC50 (NCI-H1963): > 32 µM | IC50 (NCI-H2228): > 32 µM | IC50 (MDA-MB-415): > 32 µM | IC50 (COLO-741): 18 µM | IC50 (SW1783): > 32 µM | IC50 (NCI-H524): > 32 µM | IC50 (UMC-11): > 32000 nM | IC50 (786-0): 3.32 µM | IC50 (Ca-Ski): > 32 µM | IC50 (T84): 12.2 µM | IC50 (647-V): > 32 µM | IC50 (KYSE-140): > 32 µM | IC50 (NCI-H1882): > 32 µM | IC50 (8305C): 4.17 µM | IC50 (G-361): > 32000 nM | IC50 (HSC-2): > 32 µM | IC50 (HPAF-II): > 32 µM | IC50 (GAMG): > 32 µM | IC50 (NCI-H1694): > 32 µM | IC50 (SW626): > 32 µM | IC50 (Detroit 562): > 32 µM | IC50 (SK-MES-1): 11600 nM | IC50 (VMRC-RCZ): 14.1 µM | IC50 (MFE-280): > 32000 nM | IC50 (MeWo): > 32 µM | IC50 (NCI-H520): > 32 µM | IC50 (DoTc2-4510): 10500 nM | IC50 (HCC70): > 32 µM | IC50 (NCI-H2170): > 32000 nM | IC50 (LN-405): > 32 µM | IC50 (OPM-2): > 32 µM | IC50 (MIA PaCa-2): 18100 nM | IC50 (WM-115): > 32 µM | IC50 (HCT-15): > 32 µM | IC50 (L-540): > 32 µM | IC50 (NCI-H596): > 32 µM | IC50 (SK-MEL-28): > 32000 nM | IC50 (SNU-C1): > 32 µM | IC50 (CHL-1): 11900 nM | IC50 (NCI-H716): > 32 µM | IC50 (TYK-nu): > 32000 nM | IC50 (CAPAN-1): > 32000 nM

N#Cc1c(O)c2c(-c3ccc(-c4ccccc4O)cc3)csc2[nH]c1=O
IC50 (COLO-679): > 1020 nM | IC50 (NCI-H650): > 1020 nM | IC50 (NCCIT): > 1.02 µM | IC50 (SW1573): > 1.02 µM | IC50 (SK-MM-2): 0.109 µM | IC50 (NCI-H1963): > 1.02 µM | IC50 (NCI-H2228): > 1.02 µM | IC50 (MDA-MB-415): > 1.02 µM | IC50 (COLO-741): > 1.02 µM | IC50 (SW1783): > 1.02 µM | IC50 (NCI-H524): > 1.02 µM | IC50 (UMC-11): > 1020 nM | IC50 (786-0): > 1.02 µM | IC50 (Ca-Ski): > 1.02 µM | IC50 (T84): > 1.02 µM | IC50 (647-V): > 1.02 µM | IC50 (KYSE-140): > 1.02 µM | IC50 (NCI-H1882): 0.409 µM | IC50 (8305C): > 1.02 µM | IC50 (G-361): 88.1 nM | IC50 (HSC-2): > 1.02 µM | IC50 (HPAF-II): > 1.02 µM | IC50 (GAMG): > 1.02 µM | IC50 (NCI-H1694): 0.977 µM | IC50 (SW626): > 1.02 µM | IC50 (Detroit 562): > 1.02 µM | IC50 (SK-MES-1): > 1020 nM | IC50 (VMRC-RCZ): > 1.02 µM | IC50 (MFE-280): > 1020 nM | IC50 (MeWo): > 1.02 µM | IC50 (NCI-H520): > 1.02 µM | IC50 (DoTc2-4510): > 1020 nM | IC50 (HCC70): > 1.02 µM | IC50 (NCI-H2170): > 1020 nM | IC50 (LN-405): > 1.02 µM | IC50 (OPM-2): 0.218 µM | IC50 (MIA PaCa-2): > 1020 nM | IC50 (WM-115): > 1.02 µM | IC50 (HCT-15): > 1.02 µM | IC50 (L-540): 0.848 µM | IC50 (NCI-H596): > 1.02 µM | IC50 (SK-MEL-28): > 1020 nM | IC50 (SNU-C1): > 1.02 µM | IC50 (CHL-1): > 1020 nM | IC50 (NCI-H716): > 1.02 µM | IC50 (TYK-nu): > 1020 nM | IC50 (CAPAN-1): 256 nM
